Paper PMC11462456 (Chemical Science, 2024)

How the values were obtained:
[1] = Parallel artificial membrane permeability assay (PAMPA); assay type: in vitro ADME; conditions: 10 uM, pH 7.4, four hours
Method: 4.9 Study of membrane permeability of single-ligand and dual-ligand PROTACs Parallel artificial membrane permeability assay (PAMPA) is a non-cell based assay designed to predict passive, transcellular permeability of a test compound through a PVDF membrane filter pretreated with lipid. At a given pH a log Pe (log of effective permeability) can be determined by a UV spectrophotometer. […]
is carried out in the company of Eurofins Panlabs, 6 Research Park Dr. St. Charles, MO 63304, U.S.A. The results are attached as an excel file.
Sample preparation The test compound is prepared from a 10 mM DMSO stock solution and diluted to a single final concentration of 10 uM in donor buffer. The donor solution is placed in contact with the acceptor buffer at a single pH = 7.4 with the membrane in between and the sandwich is incubated for four hours at ambient temperature.
Reference compounds Ketoprofen, propranolol and furosemide. The reference compounds yield log Pe (10-6 cm/s) values that cover the typical range of the assay from high (Propranolol), mid (Ketoprofen) to low (Furosemide) permeability.
Analytical method UV/Vis spectrophotometer
The UV absorption is measured from 250 to 500 nm for both donor and acceptor plate.
Adjustments to the method may be made as necessary to improve detection or UV spectrum.
Data analysis The amount of compound UV absorbance is determined in the donor plate prior to starting the experiment for each compound. The UV absorbance was measured from the (1 picture or pasted object on this page, not shown here) […]
donor and acceptor plate after a four hour incubation time. The log Pe was calculated using […]
4.10 Statistical Analysis.
Data analyses were performed using GraphPad Prism 9 software. The results are presented as the mean ± standard deviation (SD) or standard error of mean (SEM). All statistical analyses were evaluated with one-way analysis of variance (ANOVAs), or unpaired Student’s t-test. The difference was considered statistically significant when P < 0.05.

[2] = tested on: BRD2, BRD3, and BRD4 proteins; experiment: Western blot BET protein degradation in HEK293 cells (screen, washout kinetics, proteasome rescue); assay type: cell-based, human; conditions: 4 h, 0.1 μM and 1 μM
Excerpt: 4. Biological experiments
Primary antibodies used for western blotting included anti-human BRD2(1:2000, rabbit monoclonal, Abcam, ab139690), anti-human BRD3 (1:1000, rabbit monoclonal, Abcam, ab264420), anti-human BRD4 (E2A7X) (1:1000, rabbit monoclonal, Cell Signaling Technology, #13440), anti-human VHL (1:1000, rabbit polyclonal, Cell Signaling Technology, #68547), anti-human CRBN (D8H3S) (1:1000, rabbit polyclonal, Cell Signaling Technology, #71810), anti-human alpha Tubulin, clone B-5-1-2 (1:5000, mouse monoclonal, Merck Life Science, # 32-2500).Secondary antibodies used for western blot included: anti-mouse horseradish peroxidase-linked antibody (1:3000, sheep, GE Healthcare Life Sciences, #NA931V), and anti-rabbit horseradish peroxidase-linked antibody (1:8000, donkey, GE Healthcare Life Sciences, #NA934V). Reagent for degradation assay and compounds […]
dr. Serge Van Calenbergh, Ghent University).
4.2 Cell lines and culture […]
General method of Western blot: Lysates were sonicated and centrifuged at 4 °C at 20000 g for 15 min, and the supernatants were transferred to new tubes. Protein concentration of cell lysates was measured using the DC Protein Assay kit (BIO-RAD) following manufacturer's instructions. […]
Figure S1 Dual-ligand PROTACs induce target protein degradation in A549 cells. […] Subsequently, cells were lysed and BRD2, BRD3 and BRD4 protein levels were measured by Western blot. […]

BRD2, BRD3 and BRD4 = experiment: Mass spectrometry proteomics in A549 cells; assay type: cell-based, human; conditions: 10 nM, 4 hours, 7592 proteins quantified
Method: A549 cells in DMEM medium were seeded at 1×10^6 cells on a 6-well plate 24 h before […]
volume of DMSO. After 4 h, the cells were digested by trypsin, centrifuged at 250g for 5min and washed three times with PBS. Cells were resuspended in lysis buffer (50 mM triethylammonium bicarbonate (TEAB), 5% SDS (pH 7.5)), then sonicated, and clarified with centrifugation of 13,000g for 8 minutes. Each sample was reduced with 20 mM DTT, then warmed the solution first at 95 °C for 10 minutes and then at 60 °C for 1 hour. The reduced proteins were alkylated with 40 mM iodoacetamide (IAA) in the dark for 30 minutes. Then samples were acidified with 1.2% aqueous phosphoric acid and mixed with 6× volumes of 90% methanol, 100 mM TEAB, pH 7.1 (S-Trap binding buffer). The samples were loaded onto the (1 picture or pasted object on this page, not shown here)

| SMILES | membrane permeability [1] | degradation efficiency versus single- and trivalent PROTACs [2] | BET protein abundance change in proteome (BRD2, BRD3 and BRD4) |
| --- | --- | --- | --- |
| Cc1sc2c(c1C)C(c1ccc(Cl)cc1)=N[C@@H](CC(=O)NCCOCCOCCNC(=O)C[C@H](NC(=O)COCCOCCOCCOCCn1cc(CCC(=O)N[C@@H](CC(=O)NCCOCCOCCNc3cccc4c3C(=O)N(C3CCC(=O)NC3=O)C4=O)C(=O)NCCOCCOCCNc3cccc4c3C(=O)N(C3CCC(=O)NC3=O)C4=O)nn1)C(=O)NCCOCCOCCNC(=O)C[C@@H]1N=C(c3ccc(Cl)cc3)c3c(sc(C)c3C)-n3c(C)nnc31)c1nnc(C)n1-2 (stereo partly shown) [2J2P] | high membrane permeability | superior degradation efficiency | – |
| Cc1ncsc1-c1ccc(C(C)NC(=O)C2CC(O)CN2C(=O)C(NC(=O)COCCOCCNC(=O)CC(NC(=O)CCc2cn(CCOCCOCCOCCOCC(=O)NC(CC(=O)NCCOCCOCCNC(=O)CC3N=C(c4ccc(Cl)cc4)c4c(sc(C)c4C)-n4c(C)nnc43)C(=O)NCCOCCOCCNC(=O)CC3N=C(c4ccc(Cl)cc4)c4c(sc(C)c4C)-n4c(C)nnc43)nn2)C(=O)NCCOCCOCC(=O)NC(C(=O)N2CC(O)CC2C(=O)NC(C)c2ccc(-c3scnc3C)cc2)C(C)(C)C)C(C)(C)C)cc1 (stereo not shown) [2J2V] | very limited membrane permeability | superior degradation efficiency | top proteins being degraded the most |
| Cc1ncsc1-c1ccc(CNC(=O)C2CC(O)CN2C(=O)C(NC(=O)COCCOCCOCCNC(=O)CC2N=C(c3ccc(Cl)cc3)c3c(sc(C)c3C)-n3c(C)nnc32)C(C)(C)C)cc1 (stereo not shown) [MZ1, reference compound] | very limited membrane permeability | – | much lower change in BET protein abundance |
